{"source": "patent US5095007A", "about": "“Alteration of rate and character of hair growth” (priority 1990, dated 1992)", "key": {"[1]": {"system": "pyrimidine nucleotide content of hair follicles", "assay": "Pyrimidine nucleotide content of hair follicles after topical treatment", "type": "in vivo, hamster", "conditions": "same treatment protocol as nucleotide content in Example 1 (10%, three days daily)"}, "[2]": {"system": "aspartate transcarbamylase", "assay": "Aspartate transcarbamylase activity in hamster hair follicles after topical treatment", "type": "in vivo", "conditions": "10% solution, two treatments over a 24 hour period"}, "hamster flank organ": {"system": "hamster flank organ", "assay": "Reduction of hair growth (hair mass) on hamster flank organ after topical application", "type": "in vivo, Golden Syrian hamster", "conditions": "for Percent Inhibition of Hair Growth: vs vehicle-treated organ", "text": "L-alanosine was mixed with separate portions of the foregoing vehicle to provide specimens containing 0.1, 0.5, 1, 2, and 6% by weight respectively of the inhibitor and the pH was adjusted to pH 7.5 with sodium hydroxide.\nFour groups (eight animals in each group) of male intact Golden Syrian hamsters were provided. These animals were considered acceptable models for human beard hair growth in that they display oval shaped flank organs, one on each side, each about 8 mm. in major diameter, which grow thick black and coarse hair similar to human beard hair. These organs produce hair in response to androgens in the hamster. The flank organs of each hamster were depilated by applying a thioglycolat-- based chemical depilatory (Surgex), and to one organ of each animal was applied 10-25 μl. of vehicle alone once a day, while to the other organ of each animal was applied an equal amount of vehicle containing inhibitor. After three weeks of such applications (five days a week), the flank organs were shaved and the amount of recovered hair (hair mass) from each was weighed. The extent of reduction in hair growth by the inhibitor was expressed as the percent decrease in hair mass on the organ treated with inhibitor as compared to the organ treated with vehicle alone. As a control, one group of eight animals had both flank organs of each animal treated with vehicle alone.\nA series of compositions was prepared containing various percentages by weight of N-phosphonacetyl-L-aspartic acid (PALA) in the vehicle described in Example 1 above adjusted to pH 4.5, and applied to hamster flank organs under the same conditions as described in Example 1. The reduction in hair growth observed after three weeks was as follows: […]"}, "[3]": {"system": "adenylosuccinate synthetase", "assay": "Adenylosuccinate synthetase activity in hamster hair follicles after topical treatment", "type": "in vivo", "conditions": "10% solution, twice over a 24 hour period"}, "[4]": {"system": "adenosine nucleotide contents of hair follicles", "assay": "Adenosine nucleotide contents of flank organ hair follicles after topical treatment", "type": "in vivo, hamster", "conditions": "10% in vehicle, three days of daily treatments", "protocol": "The effect of the enzyme inhibition, was further shown by measurements of hair follicle nucleotide levels after topical treatment with L-alanosine. A group of eight hamsters was treated topically with L-alanosine (10% in the vehicle above) on one flank organ while the other organ received an equal amount of just the vehicle. After three days of daily treatments, the hair follicles from the flank organs were removed and the adenosine nucleotide contents were determined."}, "[5]": {"conditions": "PALA 2%, 10 μl, pH 4.5, three weeks"}, "[6]": {"conditions": "PALA 2%, 25 μl, pH 4.5, three weeks"}, "[7]": {"conditions": "PALA 4%, 25 μl, pH 4.5, three weeks"}, "[8]": {"conditions": "PALA 6%, 10 μl, pH 4.5, three weeks"}, "[9]": {"conditions": "PALA 6%, 25 μl, pH 4.5, three weeks"}, "[10]": {"conditions": "L-alanosine 0.5%, 25 μl, pH 7.5, three weeks"}, "[11]": {"conditions": "L-alanosine 1.0%, 25 μl, pH 7.5, three weeks"}, "[12]": {"conditions": "L-alanosine 2.0%, 25 μl, pH 7.5, three weeks"}, "[13]": {"conditions": "L-alanosine 6.0%, 25 μl, pH 7.5, three weeks"}}}
{"smiles": "O=C(O)C[C@H](NC(=O)CP(=O)(O)O)C(=O)O", "note": "[PALA, N-phosphonacetyl-L-aspartic acid]", "values": [{"measurement": "inhibition of CDP (hair follicle content)", "setting": "[1]", "value": 19, "unit": "%"}, {"measurement": "inhibition of CTP (hair follicle content)", "setting": "[1]", "value": 60, "unit": "%"}, {"measurement": "inhibition of UDP (hair follicle content)", "setting": "[1]", "value": 25, "unit": "%"}, {"measurement": "inhibition of UTP (hair follicle content)", "setting": "[1]", "value": 50, "unit": "%"}, {"measurement": "reduction of aspartate transcarbamylase activity", "setting": "[2]", "value": 72, "unit": "%"}, {"measurement": "Hamster Flank Organ Hair Mass, Treated Mean", "setting": "hamster flank organ; [5]", "value": 1.36, "unit": "mg"}, {"measurement": "Percent Inhibition of Hair Growth", "setting": "hamster flank organ; [5]", "value": 13, "unit": "%"}, {"measurement": "Hamster Flank Organ Hair Mass, Treated Mean", "setting": "hamster flank organ; [6]", "value": 1.34, "unit": "mg"}, {"measurement": "Percent Inhibition of Hair Growth", "setting": "hamster flank organ; [6]", "value": 19, "unit": "%"}, {"measurement": "Hamster Flank Organ Hair Mass, Treated Mean", "setting": "hamster flank organ; [7]", "value": 0.85, "unit": "mg"}, {"measurement": "Percent Inhibition of Hair Growth", "setting": "hamster flank organ; [7]", "value": 50, "unit": "%"}, {"measurement": "Hamster Flank Organ Hair Mass, Treated Mean", "setting": "hamster flank organ; [8]", "value": 0.37, "unit": "mg"}, {"measurement": "Percent Inhibition of Hair Growth", "setting": "hamster flank organ; [8]", "value": 78, "unit": "%"}, {"measurement": "Hamster Flank Organ Hair Mass, Treated Mean", "setting": "hamster flank organ; [9]", "value": 0.23, "unit": "mg"}, {"measurement": "Percent Inhibition of Hair Growth", "setting": "hamster flank organ; [9]", "value": 87, "unit": "%"}]}
{"smiles": "N[C@@H](CN(O)N=O)C(=O)O", "note": "[L-alanosine, L-2-amino-3-(N-hydroxy, N-nitrosamino) propionic acid]", "values": [{"measurement": "Hamster Flank Organ Hair Mass, Treated Mean", "setting": "hamster flank organ; L-alanosine 0.1%, 25 μl, pH 7.5, once a day, five days a week, three weeks", "value": 0.68, "unit": "mg"}, {"measurement": "Percent Inhibition of Hair Growth", "setting": "hamster flank organ; L-alanosine 0.1%, 25 μl, pH 7.5, three weeks", "value": 18, "unit": "%"}, {"measurement": "Hamster Flank Organ Hair Mass, Treated Mean", "setting": "hamster flank organ; [10]", "value": 0.67, "unit": "mg"}, {"measurement": "Percent Inhibition of Hair Growth", "setting": "hamster flank organ; [10]", "value": 32, "unit": "%"}, {"measurement": "Hamster Flank Organ Hair Mass, Treated Mean", "setting": "hamster flank organ; [11]", "value": 0.38, "unit": "mg"}, {"measurement": "Percent Inhibition of Hair Growth", "setting": "hamster flank organ; [11]", "value": 47, "unit": "%"}, {"measurement": "Hamster Flank Organ Hair Mass, Treated Mean", "setting": "hamster flank organ; [12]", "value": 0.51, "unit": "mg"}, {"measurement": "Percent Inhibition of Hair Growth", "setting": "hamster flank organ; [12]", "value": 61, "unit": "%"}, {"measurement": "Hamster Flank Organ Hair Mass, Treated Mean", "setting": "hamster flank organ; [13]", "value": 0.07, "unit": "mg"}, {"measurement": "Percent Inhibition of Hair Growth", "setting": "hamster flank organ; [13]", "value": 92, "unit": "%"}, {"measurement": "Nature of the hair on the treated organ", "setting": "hamster flank organ; treated vs untreated organ, Table 1 footnote", "value": "more vellous"}, {"measurement": "inhibition of adenylosuccinate synthetase activity", "setting": "[3]", "value": "about 49%"}, {"measurement": "reduction in ADP levels in hair follicles", "setting": "[4]", "value": 40, "unit": "%"}, {"measurement": "reduction in AMP levels in hair follicles", "setting": "[4]", "value": 50, "unit": "%"}, {"measurement": "reduction in ATP levels in hair follicles", "setting": "[4]", "value": 29, "unit": "%"}]}
